Measurements: patent publication US8709451B2, “Stable nanoemulsions for ultrasound-mediated drug delivery and imaging” (University of Utah Research Foundation, priority 2010, dated 2014)

Experiments:
[1] = system: A2780 ovarian cancer cells; assay: Sonication of suspended cells with DOX formulations, confocal imaging; assay type: cell-based; settings: 3-MHz CW ultrasound, DOX 10 μg/mL
Protocol: A2780 cells were lifted off the culture T-flasks with 1× Trypsin (0.25% trypsin, 0.02% EDTA, Sigma Aldrich, St Louis, Mo.). The cells were resuspended in media. This suspension was mixed 2:1 volume ratio with DOX-containing formulations with typical cell concentrations of 5.7×10^6 cells/mL. Two types of DOX solutions in PBS were used: hydrophilic hydrochloride salt DOX-HCl (20 μg/mL) or deprotonated DOX; the concentration in PBS was 20 μg/mL for either molecule. DOX formulations included deprotonated DOX incorporated in 1.4% PEG-PCL micellar solution or DOX incorporated in 1% PFCE or PFP PEG-PCL emulsion; DOX concentration was the same as in PBS solutions (20 μg/mL). […] Pressure was measured using ONDA needle hydrophone (Onda HNR-0500) (calibrated in October, 2009) placed in front of the probe with a distance of 0.5 cm from the probe. […] After ultrasound treatments, a droplet of the cell suspension was placed on a glass slide, and the fluorescence inside the cells was observed and quantified using confocal microscope as described above. […]

[2] = system: A2780 ovarian cancer cells; assay: Confocal imaging of DOX uptake by substrate-attached cells without ultrasound; assay type: cell-based; settings: no ultrasound, 20 μg/mL DOX
Protocol: A2780 cells were grown on cover glass in an 8 well cover glass chamber (LabTek chambered cover glass, NUNC, Rochester, N.Y.), and incubated with either, DOX dissolved in PBS, DOX-loaded 1.4% PEG-PCL micelle solution, or DOX-loaded 1% PFCE or PFP emulsions. Hoechst 33258 (Sigma Aldrich, St Louis, Mo.) stain was used to identify the nuclei of the A2780 cancer cells. Confocal fluorescent images of the cells were obtained using inverted confocal microscope (Olympus IX81, Olympus America Inc., Center Valley, Pa.); and the images were processed using ImageJ software. Emission filters of 570 nm for DOX and 480 nm for Hoechst were selected for imaging. In some experiments, DAPI was added to stain the cells before incubation with DOX and ultrasound exposure as discussed below.
A2780 drug sensitive cells, grown on chambered cover slip were incubated with different DOX formulations and confocal fluorescent images were obtained (FIGS. 14 and 15). Different image slices of the cell layer attached to the cover slip were recorded at an incremental step of 0.5 μm depth from the bottom to top of the cell layer (z-direction). The images recorded were stacked in z-direction and processed using ImageJ. The brightness and contrast ratios of magnified insets of the images were modified to reveal the intracellular distribution of fluorescence. […]
DOX fluorescence inside the cells was characterized by the R/G ratio where R is the intensity of red color and G is that of green color at the same region of interest (ROI) inside the cells. This ratio is used because DOX absorbs green light that ignites its red fluorescence. The R and G values and ratios were measured using ImageJ software.
The red/green (R/G) ratio of the fluorescence inside the cells and R/G ratio of the background fluorescence from the cover slip were measured. […] The cells incubated with either PFCE or PFP droplets have lower fluorescence (R/G ratios of 0.31 and 0.14 for PFCE and PFP respectively) than the cells incubated with DOX in micellar solution (R/G ratio of 0.63). […]

Compound | effect of ultrasound on DOX penetration into cell nuclei [1] | DOX penetration into cell nuclei [2] | cellular uptake of DOX [2]
COc1cccc2c1C(=O)c1c(O)c3c(c(O)c1C2=O)C[C@@](O)(C(=O)CO)C[C@@H]3O[C@H]1C[C@H](N)[C@H](O)[C@H](C)O1 [deprotonated DOX, doxorubicin] | marginal | did not get into the nuclei | low cellular uptake
COc1cccc2c1C(=O)c1c(O)c3c(c(O)c1C2=O)C[C@@](O)(C(=O)CO)C[C@@H]3O[C@H]1C[C@H](N)[C@H](O)[C@H](C)O1.Cl [hydrophilic DOX, doxorubicin] |  | red fluorescence in the nuclei | 
